For orientation: IC50 means the concentration that gives 50% inhibition. Lower therefore signals inhibition by little substance.

Results on two compounds are retold here after ChEMBL document CHEMBL1687871, “Phragmalin- and mexicanolide-type limonoids from the leaves of Trichilia connaroides” (J Nat Prod, 2011).

The assay relates to HL-60. Briefly: Cytotoxicity against human HL60 cells. Type of assay: functional, cell-based.

In turn, `C/C=C(\C)C(=O)O[C@H]1[C@@]2(C)C[C@@]3(OC(C)=O)[C@](C)([C@H]4CC[C@]5(C)C(=C4[C@H](OC(C)=O)[C@@]13OC(C)=O)[C@@H](OC(C)=O)C(=O)O[C@H]5c1ccoc1)[C@H]2CC(=O)OC` [15-ACETYLTRICHAGMALIN E] yielded a half-maximal inhibitory concentration (IC50) of 21 µM.
Turning to `C/C=C(\C)C(=O)O[C@H]1[C@@]2(C)C[C@@]3(O)[C@](C)([C@H]4CC[C@]5(C)C(=C4[C@H](OC(C)=O)[C@@]13O)[C@@H](OC(C)=O)C(=O)O[C@H]5c1ccoc1)[C@H]2CC(=O)OC` [TRICHAGMALIN D], 17.1 µM corresponded to half-maximal inhibition (IC50).
